From patent publication US8680275B2, “Fused heterocyclic compounds as orexin receptor modulators” (Janssen Pharmaceutica NV, priority 2009, dated 2014)

How the values were obtained:
human orexin-2 receptor = human orexin-2 receptor (Homo sapiens (Human), UniProt O43614); assay: Human orexin 2 receptor radioligand binding ([3H]-EMPA competition); conditions: HEK293 cells stably expressing human orexin-2 receptor; [3H]-EMPA 5 nM final; read-out: OR-2 Ki
Outline: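 Competition binding on HEK293 cells stably expressing human orexin-2 receptor, using 5 nM final [3H]-EMPA in PBS, compounds 0.1 nM to 10 μM (DMSO ≤0.1%). 60 min at room temperature, then filtration and scintillation counting; nonspecific binding defined with 10 μM of a reference antagonist.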

human orexin 1 receptor = human orexin 1 receptor (Homo sapiens (Human), UniProt O43613); assay: Human orexin 1 receptor radioligand binding ([3H]-SB674042 competition); conditions: CHO cells stably expressing human orexin 1 receptor; [3H]-SB674042 4 nM final; read-out: OR-1 Ki
Outline: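 CHO cells stably expressing human OX1R incubated 60 min at room temperature with [3H]-SB674042 and compounds (7 concentrations, 0.1 nM–10 μM; DMSO ≤0.1%) in PBS. Nonspecific binding defined with 10 μM of a reference urea antagonist; bound radioactivity measured by filtration and scintillation counting.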

Chain of human orexin-2 receptor (O43614 whole entry): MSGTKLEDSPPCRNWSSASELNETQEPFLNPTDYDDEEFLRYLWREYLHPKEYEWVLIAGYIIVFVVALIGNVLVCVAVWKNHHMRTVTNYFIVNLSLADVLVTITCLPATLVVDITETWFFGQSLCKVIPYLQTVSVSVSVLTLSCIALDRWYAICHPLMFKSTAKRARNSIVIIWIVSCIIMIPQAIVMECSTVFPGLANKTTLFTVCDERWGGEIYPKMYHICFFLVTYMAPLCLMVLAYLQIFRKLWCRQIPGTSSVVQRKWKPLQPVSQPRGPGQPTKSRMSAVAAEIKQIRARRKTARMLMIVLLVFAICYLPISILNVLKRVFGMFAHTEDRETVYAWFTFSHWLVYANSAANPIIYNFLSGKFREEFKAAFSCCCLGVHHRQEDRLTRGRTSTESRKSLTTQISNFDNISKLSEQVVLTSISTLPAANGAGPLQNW
Chain of human orexin 1 receptor (O43613 whole entry): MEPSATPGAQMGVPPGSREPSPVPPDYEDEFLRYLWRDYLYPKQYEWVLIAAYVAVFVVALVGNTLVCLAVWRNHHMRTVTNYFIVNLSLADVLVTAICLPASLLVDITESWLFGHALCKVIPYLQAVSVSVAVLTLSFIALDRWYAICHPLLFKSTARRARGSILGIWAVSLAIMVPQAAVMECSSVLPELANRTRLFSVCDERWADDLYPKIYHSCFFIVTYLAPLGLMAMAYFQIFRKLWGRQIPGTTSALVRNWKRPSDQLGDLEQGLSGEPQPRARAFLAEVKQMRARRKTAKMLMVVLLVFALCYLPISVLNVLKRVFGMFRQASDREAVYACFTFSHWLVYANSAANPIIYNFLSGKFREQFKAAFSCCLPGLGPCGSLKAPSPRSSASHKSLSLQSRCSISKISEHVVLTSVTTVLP

| Ki (human orexin-2 receptor) [nM] | Ki (human orexin 1 receptor) [nM] | Structure (SMILES) |
| --- | --- | --- |
| 250 | 1600 | Cc1ccc(N2C[C@@H]3CCN(C(=O)c4cc(F)ccc4-n4nccn4)C[C@@H]32)nc1 [Example 131, (1R,6S)-3-{[5-Fluoro-2-(2H-1,2,3-triazol-2-yl)phenyl]carbonyl}-8-(5-methylpyridin-2-yl)-3,8-diazabicyclo[4.2.0]octane] |
| 72 | 3840 | Cc1cc(C)nc(N2C[C@@H]3CCN(C(=O)c4cc(F)ccc4-c4ccc(N(C)C)nc4)C[C@@H]32)n1 [Example 166, 5-(2-{[(1R,6S)-8-(4,6-Dimethylpyrimidin-2-yl)-3,8-diazabicyclo[4.2.0]oct-3-yl]carbonyl}-4-fluorophenyl)-N,N-dimethylpyridin-2-amine] |
| 284 | 460 | COc1cccc(OC)c1C(=O)N1CCC2CN(c3nc4ccccc4o3)C2C1 (centres unmarked) [Example 16, (8-Benzooxazol-2-yl-3,8-diaza-bicyclo[4.2.0]oct-3-yl)-(2,6-dimethoxy-phenyl)-methanone] |
| 20 | 619 | Cc1cc(C)nc(N2C[C@@H]3CCN(C(=O)c4cc(F)ccc4-c4ncccn4)C[C@@H]32)n1 [Example 23, (1R,6S)[8-(4,6-Dimethyl-pyrimidin-2-yl)-3,8-diaza-bicyclo[4.2.0]oct-3-yl]-(5-fluoro-2-pyrimidin-2-yl-phenyl)-methanone] |
| 33 | 22 | O=C(c1ccccc1-c1ccccc1)N1CCC2CN(c3nccc(-c4ccccc4)n3)C2C1 (centres unmarked) [Example 9, Biphenyl-2-yl-[8-(4-phenyl-pyrimidin-2-yl)-3,8-diaza-bicyclo[4.2.0]oct-3-yl]-methanone] |
| 280 | 4500 | Cc1cnc(-n2ccnn2)c(C(=O)N2CC[C@H]3CN(c4nc(C)cc(C)n4)[C@H]3C2)c1 [Example 161, (1R,6S)-8-(4,6-Dimethylpyrimidin-2-yl)-3-{[5-methyl-2-(1H-1,2,3-triazol-1-yl)pyridin-3-yl]carbonyl}-3,8-diazabicyclo[4.2.0]octane] |
| 1300 | 10000 | Cc1cc(C)nc(N2C[C@@H]3CCN(C(=O)c4cnoc4-c4ccccc4)C[C@@H]32)n1 [Example 176, (1R,6S)-8-(4,6-Dimethylpyrimidin-2-yl)-3-[(5-phenylisoxazol-4-yl)carbonyl]-3,8-diazabicyclo[4.2.0]octane] |
| 129 | 55 | O=C(c1ccccc1-c1cccs1)N1C[C@H]2CN(c3nccc(-c4ccccc4)n3)[C@H]2C1 (single isomer, unassigned) [Example 56, 6-(4-Phenylpyrimidin-2-yl)-3-[(2-thiophen-2-ylphenyl)carbonyl]-3,6-diazabicyclo[3.2.0]heptane] |
| 230 | 10000 | Cc1nc(N)cc(N2C[C@@H]3CCN(C(=O)c4cc(F)ccc4-n4nccn4)C[C@@H]32)n1 [Example 191, 6-[(1R,6S)-3-{[5-Fluoro-2-(2H-1,2,3-triazol-2-yl)phenyl]carbonyl}-3,8-diazabicyclo[4.2.0]oct-8-yl]-2-methylpyrimidin-4-amine] |
| 210 | 10000 | Cc1ccnc(N2C[C@@H]3CCN(C(=O)c4cc(F)ccc4-n4nccn4)C[C@@H]32)c1 [Example 127, (1R,6S)-3-{[5-Fluoro-2-(2H-1,2,3-triazol-2-yl)phenyl]carbonyl}-8-(4-methylpyridin-2-yl)-3,8-diazabicyclo[4.2.0]octane] |
| 257 | 237 | COc1cccc(OC)c1C(=O)N1CCC2CN(c3nccc(-c4ccccc4)n3)C2C1 (centres unmarked) [Example 15, (2,6-Dimethoxy-phenyl)-[8-(4-phenyl-pyrimidin-2-yl)-3,8-diaza-bicyclo[4.2.0]oct-3-yl]-methanone] |
| 370 | 6000 | Cc1cnc(-n2nccn2)c(C(=O)N2CC[C@H]3CN(c4nc(C)cc(C)n4)[C@H]3C2)c1 [Example 160, (1R,6S)-8-(4,6-Dimethylpyrimidin-2-yl)-3-{[5-methyl-2-(2H-1,2,3-triazol-2-yl)pyridin-3-yl]carbonyl}-3,8-diazabicyclo[4.2.0]octane] |
| 161 | 9000 | Cc1cncc(N2C[C@@H]3CCN(C(=O)c4c(F)cccc4-n4nccn4)C[C@@H]32)n1 [Example 113, (1R,6S)-3-{[2-Fluoro-6-(2H-1,2,3-triazol-2-yl)phenyl]carbonyl}-8-(6-methylpyrazin-2-yl)-3,8-diazabicyclo[4.2.0]octane] |
| 132 | 206 | O=C(c1ccccc1-c1ccccc1)N1CC2CN(c3nccc(-c4ccccc4)n3)C2C1 (centres unmarked) [Example 47, 3-(Biphenyl-2-ylcarbonyl)-6-(4-phenylpyrimidin-2-yl)-3,6-diazabicyclo[3.2.0]heptane] |
| 26 | 43 | O=C(c1c(F)cccc1-n1nccn1)N1CC[C@H]2CN(c3nc4cc(Cl)ccc4o3)[C@H]2C1 [Example 120, 5-Chloro-2-[(1R,6S)-3-{[2-fluoro-6-(2H-1,2,3-triazol-2-yl)phenyl]carbonyl}-3,8-diazabicyclo[4.2.0]oct-8-yl]-1,3-benzoxazole] |
| 92 | 4150 | Cc1cccc(N2C[C@@H]3CCN(C(=O)c4c(F)cccc4-n4nccn4)C[C@@H]32)n1 [Example 124, (1R,6S)-3-{[2-Fluoro-6-(2H-1,2,3-triazol-2-yl)phenyl]carbonyl}-8-(6-methylpyridin-2-yl)-3,8-diazabicyclo[4.2.0]octane] |
| 200 | 8700 | Cc1cnc(N2C[C@@H]3CCN(C(=O)c4ccccc4-n4nccn4)C[C@@H]32)cn1 [Example 100, (1R,6S)-8-(5-Methylpyrazin-2-yl)-3-{[2-(2H-1,2,3-triazol-2-yl)phenyl]carbonyl}-3,8-diazabicyclo[4.2.0]octane] |
| 1100 | 10000 | CNc1cc(N2C[C@@H]3CCN(C(=O)c4cc(F)ccc4-n4nccn4)C[C@@H]32)ncn1 [Example 190, 6-[(1R,6S)-3-{[5-Fluoro-2-(2H-1,2,3-triazol-2-yl)phenyl]carbonyl}-3,8-diazabicyclo[4.2.0]oct-8-yl]-N-methylpyrimidin-4-amine] |
| 223 | 1850 | O=C(c1cccc(F)c1-c1ncccn1)N1CC[C@H]2CN(c3cc(C(F)(F)F)ccn3)[C@H]2C1 [Example 152, (1R,6S)-3-[(3-Fluoro-2-pyrimidin-2-ylphenyl)carbonyl]-8-[4-(trifluoromethyl)pyridin-2-yl]-3,8-diazabicyclo[4.2.0]octane] |
| 137 | 104 | Cc1nc(C(=O)N2CC3CN(c4nccc(-c5ccccc5)n4)C3C2)c(-c2ccccc2F)s1 (centres unmarked) [Example 52, 3-{[5-(2-Fluorophenyl)-2-methyl-1,3-thiazol-4-yl]carbonyl}-6-(4-phenylpyrimidin-2-yl)-3,6-diazabicyclo[3.2.0]heptane] |
| 94 | 39 | O=C(c1ccccc1-c1cccs1)N1CC2CN(c3nccc(-c4ccccc4)n3)C2C1 (centres unmarked) [Example 50, 6-(4-Phenylpyrimidin-2-yl)-3-[(2-thiophen-2-ylphenyl)carbonyl]-3,6-diazabicyclo[3.2.0]heptane] |
| 3780 | 1210 | Cc1ccc(C)c(S(=O)(=O)N2CCC3CN(c4cnc5ccccc5n4)C3C2)c1 (centres unmarked) [Example 21, 2-[3-(2,5-Dimethyl-benzenesulfonyl)-3,8-diaza-bicyclo[4.2.0]oct-8-yl]-quinoxaline] |
| 90 | 475 | Cc1cc(N2C[C@@H]3CCN(C(=O)c4ccccc4-n4nccn4)C[C@@H]32)nc(N(C)C)n1 [Example 43, (1R,6S)-[8-(2-Dimethylamino-6-methyl-pyrimidin-4-yl)-3,8-diaza-bicyclo[4.2.0]oct-3-yl]-(2-[1,2,3]triazol-2-yl-phenyl)-methanone] |
| 2110 | 379 | Cc1ccc(S(=O)(=O)N2CC[C@H]3CN(c4cnc5ccccc5n4)[C@H]3C2)c(C)c1 [Example 20, (1R,6S)2-[3-(2,4-Dimethyl-benzenesulfonyl)-3,8-diaza-bicyclo[4.2.0]oct-8-yl]-quinoxaline] |

| Structure (SMILES) | Ki (human orexin-2 receptor) [nM] | Ki (human orexin 1 receptor) [nM] |
| --- | --- | --- |
| Cc1cc(C)nc(N2C[C@@H]3CCN(C(=O)c4cccc(C)c4-n4nccn4)C[C@@H]32)n1 [Example 135, (1R,6S)-8-(4,6-Dimethylpyrimidin-2-yl)-3-{[3-methyl-2-(2H-1,2,3-triazol-2-yl)phenyl]carbonyl}-3,8-diazabicyclo[4.2.0]octane] | 15 | 135 |
| COc1ccc(C(=O)N2CC[C@H]3CN(c4nc(C)cc(C)n4)[C@H]3C2)c(-n2nccn2)n1 [Example 162, (1R,6S)-8-(4,6-Dimethylpyrimidin-2-yl)-3-{[6-methoxy-2-(2H-1,2,3-triazol-2-yl)pyridin-3-yl]carbonyl}-3,8-diazabicyclo[4.2.0]octane] | 380 | 10000 |
| Cc1cc(C)nc(N2C[C@@H]3CCN(C(=O)c4ccccc4-c4cccs4)C[C@@H]32)n1 [Example 1, (1R,6S)[8-(4,6-Dimethyl-pyrimidin-2-yl)-3,8-diaza-bicyclo[4.2.0]oct-3-yl]-(2-thiophen-2-yl-phenyl)-methanone] | 4 | 64 |
| Cc1nccnc1N1C[C@@H]2CCN(C(=O)c3ccccc3-n3nccn3)C[C@@H]21 [Example 105, (1R,6S)-8-(3-Methylpyrazin-2-yl)-3-{[2-(2H-1,2,3-triazol-2-yl)phenyl]carbonyl}-3,8-diazabicyclo[4.2.0]octane] | 10000 | 10000 |
